Reference: patent publication US10919943B2, “Mutant proteins enabling agrochemical control of plant gene expression” (The Regents of the University of California, priority 2016, dated 2021)

What was measured:
[1] = test system: 35S::GFP-PYR1*^-MANDI transgenic plants; test: Thermography of leaf temperature after chemical treatment; type: in vivo, Arabidopsis thaliana; conditions: for leaf temperature: T1 plants, 24 hours after application, FIG. 10
Excerpt: To examine the effects of over-expressing either PYR1*^-MANDI or HAB1* in Arabidopsis thaliana, we made 35S-driven GFP-PYR1*^-MANDI and GFP-HAB1* constructs by cloning the mutant genes into the binary vector pEGAD, and the resultant plasmids were transformed into Agrobacterium tumefaciens. The floral dip method was used to generate T0 transgenic seed for both constructs and the T0 seed was germinated in soil containing glufosinate to select for transgenic T1 plants. The PYR1*^-MANDI T1 plants isolated were grown for ˜5 weeks and then treated with mandipropamid, using comparisons to wild type Columbia plants and a previously constructed 35S::PYR1^MANDI transgenic strain as controls. The treated plants were thermographed 24 hours after chemical applications to examine leaf temperature, which increases after ABA responses are activated, due to reduced transpiration. To examine different mandipropamid concentrations, the plants were first treated with 1 μM mandipropamid and then 3 days later were treated again with 10 μM mandipropamid.
Several T1 transgenic seed were propagated and 3 homozygous single insertion transgenic lines identified by glufosinate segregation patterns in the T3 seedlings. GFP-PYR1*^-MANDI protein levels were established by western blotting using an anti-GFP antibody, as described above and the three lines had similar levels of protein expression.

[2] = test system: 35S::GFP-cyt-HAB1* and 35S::nuc-PYR1*^-MANDI; test: Mandipropamid control of protein nuclear localization, transient co-expression, confocal microscopy; type: in vivo, N. benthamiana; conditions: 50 μM mandipropamid, 24 hours; FIG. 13
Excerpt: To test this idea, we created a nuclear localized version of PYR1*^-MANDI (SEQ ID NO:32) and a cytoplasmically localized GFP-HAB1*(SEQ ID NO:33), co-expressed the two components in N. benthamiana, and subsequently examined the localization of GFP-HAB1* in response to mandipropamid using confocal microscopy. To accomplish this, we cloned PYR1*^-MANDI into the yeast two hybrid vector pAD, generating a GAL4 activation domain fusion to PYR1*^-MANDI. The GAL4 activation domain present in pAD contains a synthetic SV40 nuclear localization signal (NLS) at its N-terminus. […]
To characterize these components, 35S::GFP-cyt-HAB1* and 35S::nuc-PYR1*^-MANDI were transiently co-expressed in N. benthamiana, as described above, and plants treated with a mock or mandipropamid solution (FIG. 13). […] The leaf tissue was scanned manually by epi-fluorescence to identify patches of GFP^+ cells and then observed by spinning disk confocal microscopy, collecting ˜10 micron deep sections that spanned the entire epidermal cell layer. […] Fluorescence imaging was done using a custom built spinning disk system (Solamere Technology, Inc) with a Yokagawa W1 spinning disk (Yokagawa), EM-CCD camera (Hamamatsu 9100c) and a Nikon Eclipse TE (Nikon) inverted stand. […]

With `C#CCOc1ccc(CCNC(=O)C(OCC#C)c2ccc(Cl)cc2)cc1OC` (stereo not shown) [mandipropamid] the leaf temperature ([1]; 1 μM mandipropamid) was “Neither of the treatments elicited substantial alterations in leaf temperature”, the leaf temperature ([1]; 10 μM mandipropamid (3 days after 1 μM)) was “Neither of the treatments elicited substantial alterations in leaf temperature” and the “leaf temperature in comparison to wild type control plants” value ([1]; two homozygous lines, 5 μM mandipropamid, FIG. 11) was “did not reveal differences in leaf temperature”. The “localization of GFP-cyt-HAB1*” value [2] was “predominantly nuclear localization pattern”.
